From US9580470B2, “High-purity cyclopeptide crystal as well as preparation method and use thereof” (SHANGHAI TECHWELL BIOPHARMACEUTICAL CO., LTD., priority 2012, dated 2017) come the findings set out here.

A short description of the data set: Purity and stability test (content of impurities on storage). Type of data set: physicochemical. The settings on record: for Content of impurities in the initial sample: before storage; for 0-8° C., content of impurities in the sample at 7 day: sealed containers at 0-8° C. for 7 days. The protocol:
In this example, the purity and stability of the samples obtained in Comparative Examples and Examples were compared. The specific method is described as follows:
And then the content of impurities in each sample was analyzed.

Each structure is given as a SMILES string.

As to `CC(O)C1NC(=O)C(N)CC(O)C(O)NC(=O)C2C(O)C(C)CN2C(=O)C(C(O)CC(N)=O)NC(=O)C(C(O)C(O)c2ccc(O)c(OS(=O)(=O)O)c2)NC(=O)C2CC(O)CN2C1=O` (single isomer, unassigned) [Comparative Example 2], the “Content of impurities in the initial sample” value stood at 1.9% and the “0-8° C., content of impurities in the sample at 7 day” value (shortened to “0-8° C., content of impurities”) amounted to 3.4%.
The like results for `CC(O)C1NC(=O)C(N)CC(O)C(O)NC(=O)C2C(O)C(C)CN2C(=O)C(C(O)CC(N)=O)NC(=O)C(C(O)C(O)c2ccc(O)c(OS(=O)(=O)O)c2)NC(=O)C2CC(O)CN2C1=O` (single isomer, unassigned) [Comparative Example 3] were, in that order, 1.9% and 3.2%.
For `CC(O)C1NC(=O)C(N)CC(O)C(O)NC(=O)C2C(O)C(C)CN2C(=O)C(C(O)CC(N)=O)NC(=O)C(C(O)C(O)c2ccc(O)c(OS(=O)(=O)O)c2)NC(=O)C2CC(O)CN2C1=O` (single isomer, unassigned) [Comparative Example 4], in that order: 1.8% and 2.9%.
As for `CC(O)C1NC(=O)C(N)CC(O)C(O)NC(=O)C2C(O)C(C)CN2C(=O)C(C(O)CC(N)=O)NC(=O)C(C(O)C(O)c2ccc(O)c(OS(=O)(=O)O)c2)NC(=O)C2CC(O)CN2C1=O` (single isomer, unassigned) [Comparative Example 5], the “Content of impurities in the initial sample” value stood at 2.1% and the “0-8° C., content of impurities” value is given as 3.6%.
For `CC(O)C1NC(=O)C(N)CC(O)C(O)NC(=O)C2C(O)C(C)CN2C(=O)C(C(O)CC(N)=O)NC(=O)C(C(O)C(O)c2ccc(O)c(OS(=O)(=O)O)c2)NC(=O)C2CC(O)CN2C1=O` (single isomer, unassigned) [Comparative Example 6], the “Content of impurities in the initial sample” value is on record as 2.4% and the “0-8° C., content of impurities” value worked out at 4.1%.
For `CC(O)C1NC(=O)C(N)CC(O)C(O)NC(=O)C2C(O)C(C)CN2C(=O)C(C(O)CC(N)=O)NC(=O)C(C(O)C(O)c2ccc(O)c(OS(=O)(=O)O)c2)NC(=O)C2CC(O)CN2C1=O` (single isomer, unassigned) [Comparative Example 7], the “Content of impurities in the initial sample” value was 2.4% and the “0-8° C., content of impurities” value is 4.7%.
The like results for `C[C@@H](O)[C@@H]1NC(=O)[C@@H](N)C[C@@H](O)[C@@H](O)NC(=O)[C@@H]2[C@@H](O)[C@@H](C)CN2C(=O)[C@H]([C@H](O)CC(N)=O)NC(=O)[C@H]([C@H](O)[C@@H](O)c2ccc(O)c(OS(=O)(=O)O)c2)NC(=O)[C@@H]2C[C@@H](O)CN2C1=O` [Example 1] were, in that order, 2.5% and 4.8%.
